Test results from PubChem BioAssay (NCI).
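1) Cells in 96-well plates. 2) Compound, 48 h, 5 concentrations. 3) Linear interpolation between surrounding doses. 4) Unreached endpoint = highest concentration. GI50 marks 50% less growth. TGI denotes the concentration required for complete inhibition of growth.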

Experiments:
Assay in all cases: NCI tumour cell line growth inhibition, 48 h
OVCAR-5 ovarian = system: OVCAR-5 ovarian
SK-MEL-28 melanoma = system: SK-MEL-28 melanoma
RPMI-8226 leukemia = system: RPMI-8226 leukemia
DU-145 prostate = system: DU-145 prostate
MOLT-4 leukemia = system: MOLT-4 leukemia
UO-31 renal = system: UO-31 renal
CCRF-CEM leukemia = system: CCRF-CEM leukemia
HOP-92 NSCLC = system: HOP-92 NSCLC
HCC-2998 colon = system: HCC-2998 colon
TK-10 renal = system: TK-10 renal
COLO 205 colon = system: COLO 205 colon
UACC-257 melanoma = system: UACC-257 melanoma
LOX IMVI melanoma = system: LOX IMVI melanoma
SNB-19 CNS = system: SNB-19 CNS
RXF 393 renal = system: RXF 393 renal
SF-539 CNS = system: SF-539 CNS
MDA-MB-231 breast = system: MDA-MB-231 breast
BT-549 breast = system: BT-549 breast
MALME-3M melanoma = system: MALME-3M melanoma
NCI-H226 lung = system: NCI-H226 lung
KM12 colon = system: KM12 colon
NCI-H460 lung = system: NCI-H460 lung
HT29 colon = system: HT29 colon
T-47D breast = system: T-47D breast
K-562 leukemia = system: K-562 leukemia
OVCAR-3 ovarian = system: OVCAR-3 ovarian
MDA-MB-435 = system: MDA-MB-435
SK-OV-3 ovarian = system: SK-OV-3 ovarian

COc1ccc(/C=C/C(=O)c2cc3c(N)c(C(=O)Nc4cccc(Cl)c4C)sc3nc2C)cc1
GI50 (OVCAR-5 ovarian): 350 nM
TGI (OVCAR-5 ovarian): > 50000 nM
GI50 (SK-MEL-28 melanoma): 6100 nM
TGI (SK-MEL-28 melanoma): > 50000 nM
GI50 (RPMI-8226 leukemia): 187 nM
TGI (RPMI-8226 leukemia): 1490 nM
GI50 (DU-145 prostate): 218 nM
TGI (DU-145 prostate): > 50000 nM
GI50 (MOLT-4 leukemia): 312 nM
TGI (MOLT-4 leukemia): > 50000 nM
GI50 (UO-31 renal): 406 nM
TGI (UO-31 renal): > 25600 nM
GI50 (CCRF-CEM leukemia): 205 nM
TGI (CCRF-CEM leukemia): > 35300 nM
GI50 (HOP-92 NSCLC): 876 nM
TGI (HOP-92 NSCLC): 10600 nM
GI50 (HCC-2998 colon): 350 nM
TGI (HCC-2998 colon): 2920 nM
GI50 (TK-10 renal): 965 nM
TGI (TK-10 renal): > 50000 nM
GI50 (COLO 205 colon): 169 nM
TGI (COLO 205 colon): 751 nM
GI50 (UACC-257 melanoma): 6000 nM
TGI (UACC-257 melanoma): > 50000 nM
GI50 (LOX IMVI melanoma): 243 nM
TGI (LOX IMVI melanoma): 1250 nM
GI50 (SNB-19 CNS): 262 nM
TGI (SNB-19 CNS): > 50000 nM
GI50 (RXF 393 renal): 102 nM
TGI (RXF 393 renal): 324 nM
GI50 (SF-539 CNS): 122 nM
TGI (SF-539 CNS): 324 nM
GI50 (MDA-MB-231 breast): 327 nM
TGI (MDA-MB-231 breast): > 50000 nM
GI50 (BT-549 breast): 606 nM
TGI (BT-549 breast): 4250 nM
GI50 (MALME-3M melanoma): 1250 nM
TGI (MALME-3M melanoma): > 50000 nM
GI50 (NCI-H226 lung): 372 nM
TGI (NCI-H226 lung): 4750 nM
GI50 (KM12 colon): 214 nM
TGI (KM12 colon): 6820 nM
GI50 (NCI-H460 lung): 190 nM
TGI (NCI-H460 lung): 5040 nM
GI50 (HT29 colon): 170 nM
TGI (HT29 colon): > 50000 nM
GI50 (T-47D breast): 291 nM
TGI (T-47D breast): > 50000 nM
GI50 (K-562 leukemia): 181 nM
TGI (K-562 leukemia): > 50000 nM
GI50 (OVCAR-3 ovarian): 160 nM
TGI (OVCAR-3 ovarian): 842 nM
GI50 (MDA-MB-435): 90.8 nM
TGI (MDA-MB-435): 258 nM
GI50 (SK-OV-3 ovarian): 300 nM
TGI (SK-OV-3 ovarian): > 50000 nM
